# Data published in PubChem BioAssay AID624207 (Sanford-Burnham Center for Chemical Genomics, 2012).
# Activity calls are given as the source filed them.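 How the source made its calls: active means compounds blocking the phosphatase with IC50 at or below a set limit; inactive means the rest.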
# Target: Tyrosine-protein phosphatase non-receptor type 5 (Homo sapiens) (UniProt P54829)
# Assay: PTPN5 inhibition measured colorimetrically – biochemical, colorimetric absorbance, orthogonal assay for STEP inhibitor project, dose response (AID 624207)
# Settings: recombinant STEP, pNPP colorimetric absorbance
# Chain of Tyrosine-protein phosphatase non-receptor type 5 (Homo sapiens) (P54829 whole entry, looked up): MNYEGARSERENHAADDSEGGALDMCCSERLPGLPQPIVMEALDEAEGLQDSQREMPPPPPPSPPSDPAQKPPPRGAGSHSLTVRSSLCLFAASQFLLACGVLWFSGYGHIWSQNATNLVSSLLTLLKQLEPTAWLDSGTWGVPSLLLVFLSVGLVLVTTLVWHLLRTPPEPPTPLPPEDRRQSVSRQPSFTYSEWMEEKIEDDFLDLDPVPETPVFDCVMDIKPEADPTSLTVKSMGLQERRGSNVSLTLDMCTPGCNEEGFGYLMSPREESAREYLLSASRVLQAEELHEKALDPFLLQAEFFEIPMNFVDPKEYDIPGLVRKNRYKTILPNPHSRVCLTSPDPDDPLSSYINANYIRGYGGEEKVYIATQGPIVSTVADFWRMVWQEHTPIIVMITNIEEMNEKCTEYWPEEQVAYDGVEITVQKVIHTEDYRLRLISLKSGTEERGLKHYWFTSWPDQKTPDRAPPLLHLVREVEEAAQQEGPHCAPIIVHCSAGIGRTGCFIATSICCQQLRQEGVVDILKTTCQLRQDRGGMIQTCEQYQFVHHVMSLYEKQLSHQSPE
row,Structure (SMILES),IC50
1,S=C1NC2=C(CCCC2=C2SCCS2)C(c2ccccc2)N1 (centres undefined),inactive
2,COc1ccc(/C=N/N=C2/NC(=O)C(CC(=O)O)S2)cc1OCc1ccc(Cl)cc1Cl (centres undefined),13.6 µM
3,CSc1ccc(C=NNc2ccc(S(=O)(=O)Nc3ccccc3C(=O)O)cc2[N+](=O)[O-])cc1,4.99 µM
4,O=C1C(=O)N(CCCO)C(c2ccc(Br)cc2)/C1=C(\O)c1ccc(Br)cc1 (centres undefined),inactive
5,CCOc1cc(/C=N/N=C2/NC(=O)C(CC(=O)O)S2)ccc1OCc1ccc(Cl)cc1Cl (centres undefined),> 80 µM (inactive)
6,O=C(NN=Cc1ccccc1O)c1cccc([N+](=O)[O-])c1,15.8 µM
7,CC1=C(O)C(=O)C(C2=C(O)C(=O)C(C)=C(O)C2=O)=C(O)C1=O,> 80 µM (inactive)
8,COc1ccc(OC)c(N2C(=O)[C@@H]3C(c4ccccc4Cl)=NO[C@@H]3C2=O)c1,> 80 µM (inactive)
9,S=C1NC(C23CC4CC(CC(C4)C2)C3)=CC(c2ccc3c(c2)OCO3)N1 (centres undefined),> 80 µM (inactive)
